These results are taken from ChEMBL document CHEMBL5352465, “Small molecules containing chalcogen elements (S, Se, Te) as new warhead to fight neglected tropical diseases” (Eur J Med Chem, 2023).

One may read the IC50 as the midpoint of a concentration-inhibition curve. For orientation: IC90 means the point of the concentration-response curve where the effect stands at 90%. The term inhibition denotes the share of the control response that was lost under treatment.

Data set [1] has as its system Leishmania infantum. As to the kind of experiment: Antileishmanial activity against Leishmania infantum promastigotes assessed as inhibition of parasite growth. It is filed as functional, organism-based.
Data set [2] relates to Leishmania infantum. As to the kind of experiment: Antileishmanial activity against Leishmania infantum amastigotes assessed as inhibition of parasite growth. It is filed as functional, organism-based.
Data set [3] relates to Trypanosoma cruzi. As to the kind of experiment: Antitrypanosomal activity against Trypanosoma cruzi epimastigote Dm28c strain assessed as parasite growth inhibition incubated for 96 hrs by Neubauer chamber based light microscopic analysis. It is filed as functional, organism-based.
Another data set relates to Leishmania major. As to the kind of experiment: Antileishmanial activity against Leishmania major promastigote assessed as inhibition of parasite growth. It is filed as functional, organism-based.
For the next data set, the system named is Leishmania amazonensis. As to the kind of experiment: Antileishmanial activity against Leishmania amazonensis promastigotes assessed as inhibition of parasite growth. It is filed as functional, organism-based.
The next data set has as its system Leishmania panamensis. As to the kind of experiment: Antileishmanial activity against Leishmania panamensis MHOM/CO/87/UA140-EpiR-GFP strain amastigotes assessed as inhibition of parasite growth incubated for 72 hrs by flow cytometric analysis. It is filed as functional, organism-based. (In general: In flow cytometry, cells or beads pass a laser one at a time.)

Data set [4] is described as follows: Selectivity index, ratio of LC50 for human U-937 cells to ratio of IC50 for antileishmanial activity against Leishmania panamensis MHOM/CO/87/UA140-EpiR-GFP strain promastigotes. The following applies: read-out: Ratio LC50/IC50. It is filed as toxicity.
Data set [5] in a line: Selectivity index, ratio of CC50 for […] to ratio of IC50 for antileishmanial activity against Leishmania infantum promastigote. It is filed as toxicity, cell-based. As to conditions: read-out: Ratio CC50/IC50.
The test system of data set [6] is Trypanosoma cruzi. As to the kind of experiment: Antitrypanosomal activity against bloodstream Trypanosoma cruzi Y strain trypomastigotes assessed as parasite growth inhibition incubated for 24 hrs by Neubauer chamber based light microscopic analysis. It is filed as functional, organism-based.
Data set [7] is described as follows: Selectivity index, ratio of CC50 for cytotoxicity against Swiss mouse peritoneal macrophages to IC50 for antitrypanosomal activity against bloodstream Trypanosoma cruzi Y strain trypomastigotes. As to conditions: read-out: Ratio CC50/IC50. It is filed as toxicity.
The subject of a further data set is Leishmania tropica. As to the kind of experiment: Antileishmanial activity against Leishmania tropica promastigotes assessed as inhibition of parasite growth. It is filed as functional, organism-based.
The subject of data set [8] is Leishmania infantum. The data set is described as follows: Antileishmanial activity against Leishmania infantum promastigotes assessed as reduction in cell viability. It is filed as functional, organism-based.
Data set [9] deals with Trypanosoma cruzi. The data set is described as follows: Antitrypanosomal activity against Trypanosoma cruzi Tulahuen strain trypomastigotes assessed as parasite growth inhibition incubated for 18 hrs by light microscopic analysis. It is filed as functional.
The subject of data set [10] is Trypanosoma cruzi. The data set is described as follows: Antitrypanosomal activity against bloodstream Trypanosoma cruzi Y strain trypomastigotes assessed as parasite growth inhibition incubated for 24 hrs by light microscopic analysis. It is filed as functional, organism-based.
Data set [11] relates to Leishmania infantum. As to the kind of experiment: Antileishmanial activity against Leishmania infantum promastigotes assessed as reduction in cell viability incubated for 24 hrs by propidium iodide staining based flow cytometry assay. It is filed as functional, organism-based.
A further data set deals with Leishmania braziliensis. As to the kind of experiment: Antileishmanial activity against Leishmania braziliensis promastigotes assessed as inhibition of parasite growth. It is filed as functional, organism-based.
The nature of data set [12]: Selectivity index, ratio of CC50 for human CC cells to ratio of IC50 for antileishmanial activity against Leishmania major promastigote. It is filed as toxicity. As to conditions: read-out: Ratio CC50/IC50.
Another data set relates to Leishmania donovani. The data set is described as follows: Antileishmanial activity against Leishmania donovani promastigotes assessed as inhibition of parasite growth measured after 24 hrs by Alamar blue based analysis. It is filed as functional, organism-based. On the technique in general: The colour change of resazurin is a common sign of viable cells or microbes.

For the next data set, the system named is Leishmania aethiopica. The data set is described as follows: Antileishmanial activity against Leishmania aethiopica amastigotes assessed as inhibition of parasite growth measured after 24 hrs by Alamar blue based analysis. It is filed as functional, organism-based.
Data set [13] concerns the target Cruzipain (Trypanosoma cruzi) (UniProt P25779). The data set is described as follows: Inhibition of Trypanosoma cruzi recombinant Cruzaine using Z-FR-AMC as substrate preincubated for 10 mins followed by substrate addition by fluorimeter analysis.

Chain of Cruzipain (Trypanosoma cruzi) (P25779 123-467 limits assumed): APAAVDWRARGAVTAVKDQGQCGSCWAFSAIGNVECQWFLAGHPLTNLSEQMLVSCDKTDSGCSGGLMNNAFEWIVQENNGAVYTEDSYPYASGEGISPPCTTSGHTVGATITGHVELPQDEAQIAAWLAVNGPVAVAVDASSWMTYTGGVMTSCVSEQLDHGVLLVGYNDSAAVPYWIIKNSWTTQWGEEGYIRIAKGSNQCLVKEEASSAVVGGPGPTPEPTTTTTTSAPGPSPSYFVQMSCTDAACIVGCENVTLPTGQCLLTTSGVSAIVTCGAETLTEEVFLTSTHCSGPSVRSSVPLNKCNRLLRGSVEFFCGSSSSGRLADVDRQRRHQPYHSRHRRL

On to `O=C(CSc1nc(-c2ccccc2)cc2cc(-c3ccccc3)nn12)N/N=C/c1ccccc1`, for which the half-maximal inhibitory concentration (IC50) with Leishmania infantum [1] was 4.92 µM; in the data set on Leishmania infantum [2], 5.85 µM. On to `C/C(=N\NC(N)=S)c1cc(Cl)ccc1Cl`, for which the IC50 in the data set on Trypanosoma cruzi [3] was found to be 6.6 µM.

Consider `O=C1c2cccc3cccc(c23)C(=O)C1CCCCCCN=C=[Se]`, for which the IC50 with Leishmania major is 0.03 µM; with Leishmania amazonensis, 0.2 µM. On to `ClCCN(CCCl)c1nc(Cl)c(C2CC(c3ccc(Br)cc3)=NN2c2ccccc2)s1` (stereo unspecified), for which, in the data set with Leishmania panamensis, the IC50 amounted to 10.9 µM. Also, the selectivity ratio in data set [4] amounted to 1.6.

Regarding `O=C1c2ccccc2C(=O)N1Nc1nc(-c2ccc(Cl)cc2Cl)cs1`, in [5], the selectivity ratio came to 6.4. Take `Fc1ccc(-c2nnc(N/N=C/c3ccccn3)s2)cc1`: in the data set on Trypanosoma cruzi [6], the half-inhibitory concentration (IC50) is 9.3 µM. In addition, the selectivity ratio in data set [7] is 6. As to `O=C(Nc1nc2cnc(Cl)nc2s1)c1ccc(Cl)cc1`, the IC50 in the data set on Leishmania tropica came out at 7.5 µM. As for `CCC(C)Oc1cc(N)nc(Sc2cccc(Cl)c2)n1` (stereo unspecified), the IC50 in the data set with Leishmania infantum [1] is 29.4 µM; in the data set on Leishmania infantum [2], more than 0.25 µM. Regarding `Brc1ccc(-c2csc(N/N=C/c3ccccn3)n2)cc1`, the IC50 with Leishmania infantum [8] is 3.12 µM.

Consider `N=C(N)c1ccc2nc(-c3ccc(-c4ccc(OCCc5cn(Cc6cccc7ccccc67)nn5)cc4)s3)[nH]c2c1`, for which the IC90 in the data set on Trypanosoma cruzi [9] came to 5.78 µM. For the same compound, the IC50 in the data set with Trypanosoma cruzi [10] worked out at 2.14 µM. Take `C/C(=N\NC(N)=S)c1ccc(Cl)c(Cl)c1Cl`: the IC50 in the data set on Trypanosoma cruzi [3] was 29 µM. Take `COc1cc(C2=NN(c3ccccc3)C(c3sc(N(CCCl)CCCl)nc3Cl)C2)cc(OC)c1OC` (stereo unspecified): the IC50 with Leishmania panamensis was 13.9 µM. Also, the selectivity ratio in data set [4] amounted to 1.48. With `CCc1cc(-c2csc(-c3ccc(-n4ccnc4CNCCN)cc3OCCN3CCNC3=O)n2)cc2ccccc12`, the half-inhibitory concentration (IC50) in the data set on Leishmania infantum [11] stood at 5.1 µM. For the compound `C(=N\Nc1nnc(-c2ccccn2)s1)/c1ccccn1`, the concentration for half-maximal inhibition (IC50) in the data set on Trypanosoma cruzi [6] came to 9.5 µM. Further, in data set [7], the selectivity ratio was 7.7. Take `C/C(=N\NC(N)=S)c1ccc(Cl)cc1Cl`: the half-maximal inhibitory concentration (IC50) with Trypanosoma cruzi [3] was determined as 24.8 µM.

As to `C/C(=N\Nc1nc(-c2ccc(F)cc2)cs1)c1ccccn1`, in the data set on Leishmania infantum [8], the IC50 stood at 0.42 µM. Turning to `Cc1sc(N/N=C/c2ccccn2)nc1-c1ccc(Cl)c(Cl)c1`, the IC50 with Leishmania infantum [8] is 5.52 µM. As to `O=C(Nc1nc2cnc(Cl)nc2s1)c1ccc(Cl)cc1Cl`, the half-maximal inhibitory concentration (IC50) with Leishmania tropica stood at 0.5 µM. Consider `CCc1cc(-c2csc(-c3ccc(-n4ccnc4CNCCN)cc3OCCN3CCNC3=O)n2)ccc1-c1ccccc1`, for which, in the data set on Leishmania infantum [11], the IC50 was 8.6 µM. On to `NCCSc1ccnc2cc(Cl)ccc12`, for which the IC50 in the data set with Leishmania braziliensis is 39.9 µM; with Leishmania amazonensis, 52.9 µM. Consider `O=[N+]([O-])c1ccc(-c2nnc(NCCCO)s2)s1`, for which the selectivity ratio in data set [12] is 14. Regarding `O=C1c2ccccc2C(=O)N1Nc1nc(-c2ccc3ccccc3c2)cs1`, the selectivity ratio in data set [5] turned out to be 12.5. `C/C(=N\Nc1nc(-c2ccc(Cl)c(Cl)c2)c(C)s1)c1ccccn1`: in the data set on Leishmania infantum [8], the IC50 came to 2.73 µM. In the case of `COCCCNc1nnc(-c2ccc([N+](=O)[O-])s2)s1`, in data set [12], the selectivity ratio worked out at 2. Turning to `CC(=O)N1N=C(c2cccs2)CC1c1cc(-c2ccc(C)cc2)nn1-c1ccccc1` (stereo unspecified), the values for the IC50 in the data set with Leishmania donovani and with Leishmania aethiopica were 0.16 µM and 2.24 µM, respectively. On to `NC(=S)N/N=C(/C=C/c1ccccc1)c1ccccc1`, for which the IC50 in the data set on Leishmania infantum [1] came to 14.7 µM; in the data set with Leishmania infantum [2], 6.88 µM. As for `CC(c1cccc2ccccc12)n1cc(CCOc2ccc(-c3ccc(-c4nc5ccc(C(=N)N)cc5[nH]4)s3)cc2)nn1` (stereo unspecified), the IC90 in the data set with Trypanosoma cruzi [9] was 7.78 µM. Moreover, the IC50 in the data set with Trypanosoma cruzi [10] was 3.07 µM.

With `Cc1ccc(-c2cc(C3CC(c4cccs4)=NN3)n(-c3ccccc3)n2)cc1` (stereo unspecified), the IC50 in the data set on Leishmania donovani came out at 2.07 µM; in the data set with Leishmania aethiopica it was 1.08 µM. For `OCCSc1ccnc2cc(Cl)ccc12`, the IC50 with Leishmania braziliensis and in the data set on Leishmania amazonensis was more than 100 µM each time. With `[Se]=C=NCCCCc1ccccc1` [PHENYLBUTYL ISOSELENOCYANATE], the 50% inhibitory concentration (IC50) with Leishmania major amounted to 7.2 µM; in the data set with Leishmania amazonensis, 4.5 µM. Regarding `CN(C)c1ccc(/C=N/NC(N)=S)cc1`, the inhibition in data set [13] came to 70%.
